From publication PMC4750079, “Tackling amyloidogenesis in Alzheimer’s disease with A2V variants of Amyloid-β” (Scientific Reports, 2016) come the findings set out here.

Where a SMILES comes first, the peptide text is derived from it. [ ]: non-standard residue; d: D form.

Data set [1] concerns APPswe/PS1dE9 mice. Description: Treatment of APPswe/PS1dE9 mice. Format: in vivo, mouse. The note with it: for amyloid burden (plaque count, area fraction): 4G8 immunohistochemistry. The source says: Heterozygous four-month-old female APPswe/PS1dE9 transgenic mice were used in this study. These mice express human APP carrying the Swedish mutation together with human presenilin 1 (PS1) carrying the pathogenic dE9 mutation. Animals were divided in 2 experimental groups (n = 10 each), treated i.p. once a week with saline solution or Aβ1-6A2VTAT(D) and culled 2.5 (intermediate time) and 5 months (final time) after treatment. In both mouse transgenic lines, the brain was removed and dissected into 2 hemibrains by midsagittal dissection. One half was immediately stored at […] for biochemical assays, the other immediately immersed in formalin (10%) overnight for immunohistochemical studies.
The Novel Object Recognition test (NOR) was used to examine the cognitive performance of animal models involved in preclinical studies, following well consolidated protocols. The results of the NOR were expressed by using:
- Discrimination index (time exploring novel object - time exploring familiar object)/(time exploring novel object + time exploring familiar object).
- Recognition index (RI): time exploring novel object/(time exploring novel object + time exploring familiar object) %.
The left hemisphere of each brain was homogenized in 7 volumes of 10 mM Tris-HCl, pH 7.4, added with cOmplete Mini Protease Inhibitors cocktail (Roche), sonicated for 1 min using an ultrasonic homogenizer (SONOPULS) and centrifuged at 100,000 xg for 1 h at 4 °C. The supernatant was saved as the soluble fraction; the pellet was extracted in 70% formic acid and neutralized with 20 volumes of 1 M Tris (insoluble fraction).
Aβ40, Aβ42 and aggregated Aβ were measured in both soluble and insoluble fractions by ELISA (Invitrogen). Each experiment was performed in triplicate. The analysis of APP processing followed the protocol described above. After centrifugation, the supernatant was collected as the SDS-soluble fraction, which was analyzed by western blot with the A8717 antibody (Sigma). Signal intensity of the bands was measured by Quantity One (BioRad).
Coronal slices of the right hemibrain were embedded in paraffin and cut (7μm); sections were de-waxed in xylene and hydrated through serial alcohols to water. After formic acid (80%) pre-treatment, sections were incubated overnight with anti-Aβ antibody (4G8, 1:4000; Covance). The primary antibody signal was detected with a biotinylated secondary antibody followed by horseradish streptavidin peroxidase and visualized with DAB. Amyloid deposition was quantified in mouse brain using Aβ immunostaining (4G8) and the staining intensity was evaluated semiquantitatively using a scale range from 0 to 5 by light microscopy. The assessment was conducted in two adjacent sections of the same brain area[49]. A parallel quantification of the Aβ plaque load was performed using image analysis software (NIS-elements-Nikon)[50][51][52].

The subject of data set [2] is APPswe/PS1dE9 mice. Description: Serum IgG against Aβ peptides after chronic treatment (ELISA). The data set is classed as in vivo, mouse. The following applies: once a week for 5 months, n = 9. Here is the method:
Figure 8 Serum levels of IgG against Aβ peptides after chronic treatment with Aβ1-6A2VTAT(D). To verify whether Aβ1-6A2VTAT(D) administration once a week for 5 months was associated with an immune response, we collected blood from mice before (T0) and at the end of the treatment (T2). Sera from saline (n = 8) and Aβ1-6A2VTAT(D) (n = 9) treated mice were tested induplicate using ELISA for the presence of IgG against Aβ1-6A2VTAT(D) (A), the full-length Aβ1-42 (B), Aβ1-6A2V (C) and TAT(D) (D).
Sera were collected from mice before (T0) and at the end of the treatment (5 months), and tested using ELISA for the presence of IgG against Aβ1-6A2VTAT(D), the full-length Aβ1-42, Aβ1-6A2V(D) and TAT(D) following previously described protocols for antigen-specific mouse IgG detection, except blocking buffer that was PBS 3% milk. Anti-Aβ1-42 IgG antibodies from 6E10 IgG clone (Covance), and sera from mice immunized with Aβ1-6A2VTAT(D) or with Aβ1-6A2V emulsified in Complete Freund’s adjuvant were used as positive controls.
(In general: ELISA stands for enzyme-linked immunosorbent assay.)

For another data set, the system named is OP50 E. coli. The following applies: peptide 1 µg/µl, 24 h, 25 °C and 37 °C, MALDI TOF MS, small fraction cleaved at Gly 11. Here is the method:
(§1) The stability of Aβ1-6A2VTAT(D) peptide to protease digestion was also investigated. To this end, the peptide (1µg/µl) was incubated at 37 °C with 10 ng/µl of proteinase K and in the presence of OP50 E. coli. […] Samples were potted on a metallic plate (MTP 384 Ground Steel, Bruker) before and 24 h after incubation at 25 °C and 37 °C, and analyzed by MALDI TOF mass spectrometry (MS).

The target in another data set is proteinase K (Parengyodontium album, UniProt P06873). The following applies: peptide 1 µg/µl, 10 ng/µl proteinase K, 24 h, 25 °C and 37 °C, MALDI TOF MS; small fraction cleaved at Gly 11. On the procedure:
as §1

In the next data set the test system is SH-SY5Y cells. Kind of data set: Toxicity of peptides on differentiated SH-SY5Y cells (MTT test). Format: cell-based, human. The note with it: 24 h. On the procedure: Figure 2 Analysis of the effects of Aβ1-6WT(D), Aβ1-6A2V(D) and Aβ1-6A2VTAT(D) on neurotoxicity in cell models. SH-SY5Y cells were differentiated with 10 μM retinoic acid. […] Comparison of cell viability was performed by Student t-test.
Toxicity studies with Aβ1-6WT(D), Aβ1-6A2V(D) or Aβ1-6A2VTAT(D) and the short peptides’ ability to inhibit the toxicity induced by Aβ1-42WT in SH-SY5Y cell cultures were analyzed following previously described protocols. Each experiment was performed in triplicate; the data provided were obtained as the mean of three independent assays.
(In general: Tetrazolium assays rely on reduction of a dye to a coloured formazan, in cell work by metabolically active cells.)

Another data set addresses T1, Aβ1-42WT (Homo sapiens, UniProt P05067).
T1 construct: Aβ1-42WT oligomers were formed following incubation of Aβ1-42WT at a final concentration of 100 μM; made in house; host or cells: chemical synthesis (solid-phase Fmoc), no expression host
Description: CD spectroscopy of Aβ1-42WT secondary structure. The data set is classed as biochemical. The following applies: data not shown.

Setting [3] is: i.p. 10 mg/kg once a week for 2.5 months, vs saline, ELISA.
Where [4] appears, read: i.p. 10 mg/kg once a week for 5 months, vs saline.

T1 sequence (P05067 672-713 limits assumed): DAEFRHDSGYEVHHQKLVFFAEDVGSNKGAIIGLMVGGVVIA
proteinase K, sequence (P06873 106-384, species assumed): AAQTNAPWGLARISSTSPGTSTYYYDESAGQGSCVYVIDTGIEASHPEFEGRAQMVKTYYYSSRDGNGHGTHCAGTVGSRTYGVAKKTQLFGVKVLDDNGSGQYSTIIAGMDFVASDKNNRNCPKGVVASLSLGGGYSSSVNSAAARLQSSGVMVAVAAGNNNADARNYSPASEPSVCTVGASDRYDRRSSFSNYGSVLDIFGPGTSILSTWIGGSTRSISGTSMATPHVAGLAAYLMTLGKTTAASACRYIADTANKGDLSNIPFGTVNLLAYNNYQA

Turning to `CC(C)[C@@H](NC(=O)[C@H](N)CC(=O)O)C(=O)N[C@H](CCC(=O)O)C(=O)N[C@H](Cc1ccccc1)C(=O)N[C@H](CCCNC(=N)N)C(=O)N[C@H](Cc1c[nH]cn1)C(=O)NCC(=O)NCC(=O)NCC(=O)NCC(=O)NCC(=O)N[C@H](CCCNC(=N)N)C(=O)N[C@H](CCCCN)C(=O)N[C@H](CCCCN)C(=O)N[C@H](CCCNC(=N)N)C(=O)N[C@H](CCCNC(=N)N)C(=O)N[C@H](CCC(N)=O)C(=O)N[C@H](CCCNC(=N)N)C(=O)N[C@H](CCCNC(=N)N)C(=O)N[C@H](CCCNC(=N)N)C(=O)O` [Aβ1-6A2VTAT(D)] (H-[dD][dV][dE][dF][dR][dH]GGGGG[dR][dK][dK][dR][dR][dQ][dR][dR][dR]-OH; N-terminus assumed), the “effects on APP processing (C99:C83 ratio), short-term” value in the data set on APPswe/PS1dE9 mice [1] (after 2.5 months of treatment, western blot) is listed as “not observed after short-term treatment schedules”. Besides, the “side effect on brain (neuropathologic studies)” value in the data set on APPswe/PS1dE9 mice [1] (chronic treatment, data not shown) is reported as “did not result in any evident side effect on brain”. Also, the “Novel Object Recognition test scores” value with APPswe/PS1dE9 mice [1] (i.p. 10 mg/kg once a week for 2.5 months) was “small, albeit not statistically significant, improvement”. Besides, in the data set with APPswe/PS1dE9 mice [1] (i.p. 10 mg/kg once a week for 2.5 months, vs saline), the “amyloid burden (plaque count, area fraction)” value is recorded as “reduction of amyloid burden”. Besides, in the data set on APPswe/PS1dE9 mice [1] (setting [3]), the “brain Aβ40” value is reported as “not changed compared to controls”; the “brain Aβ42 in the insoluble fraction” value is “concomitant decrease in the insoluble fraction”; the “brain Aβ42 in the soluble fraction” value is “increase of Aβ42 in the soluble fraction”; the “brain aggregated Aβ, soluble and insoluble fraction” value is “reduced in both the compartments”. Besides, in the data set on APPswe/PS1dE9 mice [1] (setting [4]), the “Novel Object Recognition test, recognition and discrimination indexes” value is listed as “preserved cognitive function”; the “amyloid burden (plaque count, area fraction)” value is “unexpectedly increased”. Besides, the “brain Aβ levels (Aβ40, Aβ42, aggregated Aβ)” value in the data set on APPswe/PS1dE9 mice [1] (i.p. 10 mg/kg once a week for 5 months, vs saline, ELISA) is listed as “no significant difference compared to mice treated with saline solution”. Besides, the “C99:C83 ratio in brain (APP processing)” value in the data set on APPswe/PS1dE9 mice [1] (i.p. every 7 days for 5 months, western blot densitometry) is “increase in the C99:C83 ratio”. In the data set on APPswe/PS1dE9 mice [2], the “serum IgG against Aβ1-6A2V peptide” value was “did not induce production of IgG”, the “serum IgG against Aβ1-6A2VTAT(D)” value is “not negligible levels”, the “serum IgG against TAT(D)” value was 3 out of 9 mice displayed slightly increased levels and the “serum IgG against full-length Aβ” value is listed as “not negligible levels”. Moreover, the “resistance to digestion with bacteria proteases” value in the data set with OP50 E. coli is “largely resistant”. The “resistance to digestion with proteinase K” value on proteinase K is “largely resistant”. Also, the “toxicity at concentrations between 1 and 5 μM” value in the data set on SH-SY5Y cells (1 to 5 μM) is on record as “not toxic”. Moreover, in the data set on SH-SY5Y cells (higher concentrations), the “toxicity at concentrations higher than 5 μM” value is given as “reduces cell viability at higher concentrations”. Further, the “acquisition of β-sheet conformation by Aβ1-42WT” value on Aβ1-42WT is reported as “inhibits the acquisition of β-sheet conformation by Aβ1-42WT”.
